In patent publication US12053447B2, “Oral solution and powder to liquid compositions of balsalazide” (NuBioPharma, LLC, priority 2019, dated 2024):
Residues, ends and D or L forms follow the SMILES beside them.

Legend:
[1] = Stability of sweetener aspartame in solution; type: physicochemical; settings: pH 7.0 and above
[2] = Storage stability of liquid balsalazide solution (HPLC assay, settling); type: physicochemical
Description: The storage stability of two balsalazide disodium solutions, 750 mg/5 ml, with the formulations described in TABLE 6 and TABLE 7 with pH of 4.8 and pH 7.2, respectively were subjected to accelerated stability testing at 40° C. and at room temperature (25° C.). Balsalazide solutions stored in amber PVC bottles (30 ml volume) were tested over a 90-day storage period. The amount of balsalazide and its known impurities were determined by a validated high pressure liquid chromatography (HPLC) assay after 0 day (initial), 45 days, and 90 days and results are shown in TABLE 6 below. Five minor impurities (less than 0.1% each) were identified in balsalazide solution initially on day 0.

stability in solution [1] | stability of oral solution ([2]; acidic conditions of pH below 7.0) | stability of oral solution ([2]; pH of 7.0 or higher) | Compound
unstable | – | – | COC(=O)[C@H](Cc1ccccc1)NC(=O)[C@@H](N)CC(=O)O [aspartame] (H-Asp-Phe-OMe)
– | unstable | stable | O=C(O)CCNC(=O)c1ccc(/N=N/c2ccc(O)c(C(=O)O)c2)cc1 [balsalazide]
